According to patent US8445532B2, “Use of phthalide derivatives” (priority 2005, dated 2013):
Values after ≈ are worked out from the molar mass of the structure shown.

Experiments:
[1] = test system: KBv200 cells; assay: Sensitizing effect of PA to conventional chemotherapeutic drugs (MTT); type: cell-based, human; settings: KBv200, IC50 without sensitizer / with sensitizer 10 μg/mL
Description: (§1) The cells at logarithmic phase were collected and added into RPMI 1640 medium (containing 10% fetal bovine serum) to make cell suspensions. The cell suspension was added to 96-well plate at 100 μl per well, and the cell number was 2×10^3 (suspending cells) or 1×10^3 (adherent cells) per well. After inoculation, the suspending cells were adapted for half an hour on the plate and the adherent cells were cultivated to allow adhesion before the drugs were added. The control groups (Ctrl) were added with anti-tumor drugs but without PA. The drug concentration of each PA group was 10 μg/mL. The concentrations of chemotherapeutic drugs increased from 0.001 μg/mL to 20 μg/mL. There Were six parallel repeated wells for every concentration gradient. RPMI 1640 was added up to a finally volume of 200 μl per well. The cells were cultured at the condition of 37° C., saturated humidity, 5% CO2 for 68 hours. The MTT was determined and the IC50 was calculated as in example 4.
(§2) The formula of resistant factor: Resistant Factor (RF)=the IC50 without sensitizer/the IC50 with sensitizer.

[2] = test system: K562/Adr cells; assay: as above; type: cell-based, human; settings: IC50 without sensitizer / with sensitizer 10 μg/mL
Description: as §1, §2

[3] = test system: MCF-7/Adr cells; assay: as above; type: cell-based, human; settings: IC50 without sensitizer / with sensitizer 10 μg/mL
Description: as §1, §2

[4] = test system: KBv200; assay: Growth inhibiting effect of PA on drug resistant cells (MTT); type: cell-based; settings: Homo sapiens; KBv200, PA alone; read-out: IC50 growth inhibition
Description: (§3) Methods: 1×10^3 cells per well were inoculated onto a 96-well plate. PA was added to K562/Adr directly and to KBV200 and MCF-7/Adr after adhesion. The concentrations of the drugs were 0, 0.1, 0.5, 1, 5, 10, 20, 40, 80, 160 μg/mL. MTT was determined according to the method of example 2 and the IC50 was calculated. The experiment was repeated three times.

[5] = test system: K562/Adr; assay: as above; type: cell-based; settings: Homo sapiens, PA alone, read-out: IC50 growth inhibition
Description: as §3

[6] = test system: MCF-7/Adr; assay: as above; type: cell-based; settings: Homo sapiens, NCI/ADR-RES, PA alone, read-out: IC50 growth inhibition
Description: as §3

SMILES	IC50 [5] [µg/mL]	IC50 [6] [µg/mL]	RF (Ctrl/S), Adr [1]	RF (Ctrl/S), DDP [1]	RF (Ctrl/S), Taxol [1]	RF (Ctrl/S), Vin [1]	RF (Ctrl/S), Adr [2]	RF (Ctrl/S), DDP [2]	RF (Ctrl/S), Taxol [2]	RF (Ctrl/S), Vin [2]	RF (Ctrl/S), Adr [3]	RF (Ctrl/S), DDP [3]	RF (Ctrl/S), Taxol [3]	RF (Ctrl/S), Vin [3]	IC50 [4] [µg/mL]
CCC/C=C1\OC(=O)C2=C1CCC=C2 [S4]	32.4 ± 1.13 (≈ 170 µM)	47.3 ± 2.12 (≈ 249 µM)	5.331	6.981	6.416	13.02	6.349	3.007	2.412	6.432	3.114	5.125	4.279	26.01	32.5 ± 1.03 (≈ 171 µM)
CCC/C=C1\OC(=O)C2=C1CCC1OC21 (single isomer, unassigned) [S3]	39.2 ± 1.58 (≈ 190 µM)	34 ± 3.76 (≈ 165 µM)	18.97	7.188	2.548	6.169	13.93	2.239	5.740	4.899	4.153	6.708	3.232	4.008	27.4 ± 1.06 (≈ 133 µM)
CCCCC1OC(=O)c2cccc(O)c21 (stereo not drawn) [S2]	41.4 ± 3.53 (≈ 201 µM)	29.4 ± 2.8 (≈ 143 µM)	12.23	2.767	10.83	11.40	41.12	5.698	10.57	1.757	6.939	2.565	10.19	6.239	26.4 ± 1.98 (≈ 128 µM)
CCCCC1OC(=O)C2=C1CCC=C2 (single isomer, unassigned) [S1]	21.4 ± 1.09 (≈ 111 µM)	37.4 ± 3.15 (≈ 195 µM)	10.27	8.063	5.245	13.03	34.99	5.116	24.04	6.214	11.34	3.376	2.685	11.12	38.7 ± 2.13 (≈ 201 µM)
CCC/C=C1\OC(=O)C2=C1CCC(O)C2O (single isomer, unassigned) [S5]	18.3 ± 0.762 (≈ 81.6 µM)	39.3 ± 2.14 (≈ 175 µM)	16.95	3.208	13.88	2.088	6.264	2.104	2.117	3.109	5.02	4.508	15.62	6.934	29.8 ± 1.05 (≈ 133 µM)

Further lines, with some results ahead:

IC50 [5] [µg/mL]	IC50 [6] [µg/mL]	SMILES	RF (Ctrl/S), Adr [1]	RF (Ctrl/S), DDP [1]	RF (Ctrl/S), Taxol [1]	RF (Ctrl/S), Vin [1]	RF (Ctrl/S), Adr [2]	RF (Ctrl/S), DDP [2]	RF (Ctrl/S), Taxol [2]	RF (Ctrl/S), Vin [2]	RF (Ctrl/S), Adr [3]	RF (Ctrl/S), DDP [3]	RF (Ctrl/S), Taxol [3]	RF (Ctrl/S), Vin [3]	IC50 [4] [µg/mL]
31.3 ± 1.87 (≈ 81.8 µM)	43.2 ± 3.14 (≈ 113 µM)	CCC/C=C1\OC(=O)C2=CC3CC[C@]21C1C2=C(CC[C@@H]31)C(CCCC)OC2=O (stereo partly drawn) [S8]	3.623	4.375	3.87	7.326	1.796	2.722	3.506	7.918	5.639	6.407	1.612	9.597	38.6 ± 2.17 (≈ 101 µM)
29.8 ± 0.995 (≈ 78.3 µM)	44.5 ± 3.99 (≈ 117 µM)	CCC/C=C1\OC(=O)C2=C1CC[C@H]1C3C=C4C(=O)O/C(=C\CCC)[C@@]4(CC3)C21 (stereo partly drawn) [S6]	2.297	2.622	8.72	3.342	6.249	1.371	1.641	1.833	12.59	2.539	3.932	13.22	35.2 ± 2.15 (≈ 92.6 µM)
20.4 ± 2.61 (≈ 53.7 µM)	39.6 ± 4.61 (≈ 104 µM)	CCC/C=C1\OC(=O)C2=C1CCC1C(CCC)C3(OC(=O)C4=C3CCC=C4)C21 (stereo not drawn) [S7]	2.405	5.939	5.179	7.376	8.257	0.653	1.550	3.963	14.12	6.516	7.023	3.831	36.9 ± 2.19 (≈ 97 µM)
